Laboratory results published in patent publication US20100324285A1, “ANTIINFLAMMATORY AGENT COMPRISING 2-AMINOPHENOL OR DERIVATIVE THEREOF AS ACTIVE INGREDIENT” (priority 2006, published 2010).
Values belong to the molecule of their own block, whether it stands above or below them.

Key:
RBL-2H3 = assay: Degranulation reaction of basocyte (β-hexosaminidase release); format: cell-based, rat; settings: for concentration at which inhibiting activity on degranulation was exerted: summary of Table 3
Description: Degranulation rate (%) and inhibition rate of degranulation (%) were calculated based on the measurements of β-hexosaminidase activity in the granules released from the cells by degranulation reaction.
Rat cancer cells from basocyte RBL-2H3(catalognumber“JCRB0023”, commercialized by Health Science Research Resources Bank of Japan Health Sciences Foundation), known to be degranulated by cross-linkage of IgE, were used after cultured in a MEM medium (commercialized by Nissui Pharmaceutical Co., Ltd.) supplemented with 10% (v/v) FCS.
The above cells were recovered from a flask by conventional trypsin-EDTA treatment, then suspended in a MEM medium supplemented with 10% (v/v) FCS to give a cell concentration of 5×10^5 cells/ml. The suspension was inoculated to a 24-well microplate in a volume of 400 μl per well, cultured in a 5% (v/v) carbon dioxide incubator for 3 to 5 hours, then admixed with 0.625 μg/ml of anti dinitrophenol (hereinafter abbreviated as “DNP”) mouse IgE (commercialized by Sigma-Aldrich, Inc., diluted by MEM medium supplied with 10% (v/v) FCS) in a volume of 100 μl per well to sensitize the cells by IgE (a final concentration of the anti DNP-IgE was 0.125 μg/ml). After the cells were cultured in the 5% (v/v) carbon dioxide incubator overnight, the supernatant was removed by suction, and then each well was washed twice with Siraganian buffer (119 mM NaCl, 5 mM KCl, 0.4 mM MgCl2, 25 mM piperazine-N,N″-bis(2-ethane sulfonic acid) (PIPES), 40 mM NaOH, pH 7.2) by 500 μl per well. After admixed with Siraganian buffer containing 0.1% bovine serum albumin (BSA), 5.6 mM glucose and 1 mM CaCl2 (hereinafter described as “BSA-containing Siraganian buffer) in a volume of 160 μl per well, the microplate was warmed at 37° C. for 15 minutes. As test samples, 2-aminophenoxazine-3-one (questiomycin A), arbutin having skin-whitening effect and oxatomide used as therapeutic agents for allergic diseases (positive control) were diluted with BSA-containing Siraganian buffer to give the concentrations shown in Table 3, any of the test samples was added by 20 μl per well, then the microplate was warmed at 37° C. for 15 minutes (wells with the test samples). The well with any of the test samples was admixed with DNP-albumin (commercialized by Sigma-Aldrich, Inc.) diluted with BSA-containing Siraganian buffer to give a concentration of 50 μg/ml by 20 μl per well, and warmed at 37° C. for 15 minutes. After the 24-well microplate was cooled on ice for 10 minutes, the supernatant was collected and 100 μl thereof was injected into a 96-well microplate to measure the β-hexosaminidase activity in the supernatant. As negative control, BL-2H3 cells were cultured and treated in the same way as the wells admixed with the test samples except for that FCS-supplemented MEM medium containing no antibody was used, and the β-hexosaminidase activity in the supernatant was measured (the well without IgE sensitization). After the supernatants were removed from some of the wells without IgE sensitization, the wells were washed twice with BSA-containing Siraganian buffer and admixed with BSA-containing Siraganian buffer by 200 μl per well. The cells were broken by twice repeating freezing at −80° C. and thawing, whole medium containing the broken cells was collected, centrifuged at 1,500 rpm for 10 minutes, and then 100 μl of the supernatant was injected into a 96-well microplate to measure the β-hexosaminidase activity of the whole granule extract.
Each well of the 96-well microplate injected with any of the supernatant from the wells with the test samples, the supernatant from the wells without IgE sensitization or the whole granule extract described above was admixed with 50 μl of citrate buffer (pH 4.5) containing 1 mM 4-nitrophenyl-N-acetyl-β-glucosaminide (PNAG) as substrate, kept at 37° C. for 1 hour, and then the reaction was stopped by adding 50 μl of 0.1 M sodium carbonate (pH 10.5). […]

[1] = test system: Mouse melanoma cell line B16; assay: Melanin synthesis in B16 cells; format: cell-based; settings: for Amount of melanin (%): 5 days, per mg protein versus control; for inhibiting effect on melanin production in combinational use: used with 2-aminophenoxsazine-3-one
Description: (§1) As control, a system with no test sample was provided. […] The amount of protein was measured by conventional Bradfordmethod and the amount of melanin per 1 mg of protein was calculated. The amount of melanin (%) was calculated according to Formula 4, and the living cell rate (%) was calculated according to Formula 5.
As control, a system with no test sample was provided. […] The amount of protein was measured by conventional Bradford method and the amount of melanin per 1 mg of protein was calculated. The amount of melanin (%) was calculated according to Formula 4.

RAW264.7 cells [2] = assay: Macrophage growth, living cell count; format: cell-based, mouse; settings: 2 days, relative level versus control
Source text: (§2) RAW264.7 cells, a murine macrophage cell strain, were suspended in PRMI1640 medium supplied with 10% (v/v) fetal calf serum (hereinafter abbreviated as “FCS”) to give a cell suspension with a cell concentration of 1×10^6 cells/ml. […] The experimental system without the test samples described above was set as control. […] NO production, PGE2 production and macrophage growth are indicated as relative levels versus controls.

RAW264.7 cells [3] = assay: NO production by macrophage RAW264.7, Griess method; format: cell-based, mouse; settings: LPS + IFN-γ, 2 days, relative level versus control
Source text: As macrophage cells, RAW264.7 cell strain from mouse or macrophage cells obtained from laboratory animals such as mouse can be used. The amount of produced NO can be measured by conventional Griess method. […] RAW264.7 cells, a murine macrophage cell strain, were suspended in PRMI1640 medium supplied with 10% (v/v) fetal calf serum (hereinafter abbreviated as “FCS”) to give a cell suspension with a cell concentration of 1×10^6 cells/ml. […] The experimental system without the test samples described above was set as control. […] NO production, PGE2 production and macrophage growth are indicated as relative levels versus controls.

RAW264.7 cells [4] = assay: PGE2 production by macrophage RAW264.7, PGE2-EIA kit; format: cell-based, mouse; settings: LPS + IFN-γ, 2 days, relative level versus control
Source text: as §2

[5] = test system: Mouse melanoma cell line B16; assay: Living cell rate of B16 cells; settings: mouse, 5 days
Description: as §1

- concentration at which inhibiting activity on degranulation was exerted (RBL-2H3): no inhibition activity on degranulation
SMILES: OC[C@H]1O[C@@H](Oc2ccc(O)cc2)[C@H](O)[C@@H](O)[C@@H]1O [AB, arbutin]
- inhibition at 31.3 µM (RBL-2H3; Rattus norvegicus, RBL-2H3, 31.3 μM, read-out: Inhibition intensity of degranulation): -30 to 30%
- inhibition at 200 µM (RBL-2H3; Rattus norvegicus, RBL-2H3, 200 μM, read-out: Inhibition intensity of degranulation): -30 to 30%
- inhibition at 500 µM (RBL-2H3; Rattus norvegicus, RBL-2H3, 500 μM, read-out: Inhibition intensity of degranulation): -30 to 30%
- inhibition at 2000 µM (RBL-2H3; Rattus norvegicus, RBL-2H3, 2000 μM, read-out: Inhibition intensity of degranulation): -30 to 30%

SMILES: O=C1O[C@H]([C@@H](O)CO)C(O)=C1O[C@H]1O[C@H](CO)[C@@H](O)[C@H](O)[C@H]1O [Ascorbic acid 2-glucoside, ascorbic acid 2-glucoside]
- Amount of melanin (%) ([1]; 2 mM): 80%
- Amount of melanin (%) ([1]; 4 mM): 68%
- Amount of melanin (%) ([1]; 8 mM): 63%
- inhibiting effect on melanin production in combinational use [1]: synergistically exert inhibiting effect on melanin production

SMILES: COc1ccc2c(c1)c(CC(=O)O)c(C)n2C(=O)c1ccc(Cl)cc1 [IN, indomethacin]
- Macrophage growth (%) (RAW264.7 cells [2]; 0.16 μM): 102%
- Macrophage growth (%) (RAW264.7 cells [2]; 0.31 μM): 104%
- Macrophage growth (%) (RAW264.7 cells [2]; 0.63 μM): 108%
- Macrophage growth (%) (RAW264.7 cells [2]; 1.3 μM): 117%
- Macrophage growth (%) (RAW264.7 cells [2]; 2.5 μM): 120%
- Macrophage growth (%) (RAW264.7 cells [2]; 5.0 μM): 122%
- Macrophage growth (%) (RAW264.7 cells [2]; 10 μM): 120%
- NO production (%) (RAW264.7 cells [3]; 0.16 μM): 86%
- NO production (%) (RAW264.7 cells [3]; 0.31 μM): 84%
- NO production (%) (RAW264.7 cells [3]; 0.63 μM): 81%
- NO production (%) (RAW264.7 cells [3]; 1.3 μM): 82%
- NO production (%) (RAW264.7 cells [3]; 2.5 μM): 80%
- NO production (%) (RAW264.7 cells [3]; 5.0 μM): 80%
- NO production (%) (RAW264.7 cells [3]; 10 μM): 78%
- PGE2 production (%) (RAW264.7 cells [4]; 0.16 μM): 4%
- PGE2 production (%) (RAW264.7 cells [4]; 0.31 μM): 4%
- PGE2 production (%) (RAW264.7 cells [4]; 0.63 μM): 4%
- PGE2 production (%) (RAW264.7 cells [4]; 1.3 μM): 3%
- PGE2 production (%) (RAW264.7 cells [4]; 2.5 μM): 1%
- PGE2 production (%) (RAW264.7 cells [4]; 5.0 μM): 2%
- PGE2 production (%) (RAW264.7 cells [4]; 10 μM): 1%

- Living cell rate (%) ([5]; 0.5 mM): 93%
- Living cell rate (%) ([5]; 1 mM): 86%
- Living cell rate (%) ([5]; 2 mM): 73%
SMILES: O=c1cc(CO)occ1O [Koji acid, kojic acid]
- Amount of melanin (%) ([1]; 0.5 mM): 79%
- Amount of melanin (%) ([1]; 1 mM): 71%
- Amount of melanin (%) ([1]; 2 mM): 59%
- inhibiting effect on melanin production in combinational use [1]: synergistically exert inhibiting effect on melanin production

SMILES: CS(=O)(=O)Nc1ccc([N+](=O)[O-])cc1OC1CCCCC1 [NS]
- Macrophage growth (%) (RAW264.7 cells [2]; 0.16 μM): 95%
- Macrophage growth (%) (RAW264.7 cells [2]; 0.31 μM): 97%
- Macrophage growth (%) (RAW264.7 cells [2]; 0.63 μM): 99%
- Macrophage growth (%) (RAW264.7 cells [2]; 1.3 μM): 102%
- Macrophage growth (%) (RAW264.7 cells [2]; 2.5 μM): 100%
- Macrophage growth (%) (RAW264.7 cells [2]; 5.0 μM): 105%
- Macrophage growth (%) (RAW264.7 cells [2]; 10 μM): 110%
- NO production (%) (RAW264.7 cells [3]; 0.16 μM): 90%
- NO production (%) (RAW264.7 cells [3]; 0.31 μM): 89%
- NO production (%) (RAW264.7 cells [3]; 0.63 μM): 87%
- NO production (%) (RAW264.7 cells [3]; 1.3 μM): 85%
- NO production (%) (RAW264.7 cells [3]; 2.5 μM): 85%
- NO production (%) (RAW264.7 cells [3]; 5.0 μM): 88%
- NO production (%) (RAW264.7 cells [3]; 10 μM): 84%
- PGE2 production (%) (RAW264.7 cells [4]; 0.16 μM): 4%
- PGE2 production (%) (RAW264.7 cells [4]; 0.31 μM): 4%
- PGE2 production (%) (RAW264.7 cells [4]; 0.63 μM): 2%
- PGE2 production (%) (RAW264.7 cells [4]; 1.3 μM): 1%
- PGE2 production (%) (RAW264.7 cells [4]; 2.5 μM): 1%
- PGE2 production (%) (RAW264.7 cells [4]; 5.0 μM): 5%
- PGE2 production (%) (RAW264.7 cells [4]; 10 μM): 2%

SMILES: O=c1[nH]c2ccccc2n1CCCN1CCN(C(c2ccccc2)c2ccccc2)CC1 [OX, oxatomide]
- inhibition at 1.5 µM (RBL-2H3; Rattus norvegicus, RBL-2H3, 1.5 μM, read-out: Inhibition intensity of degranulation): -30 to 30%
- inhibition at 5 µM (RBL-2H3; Rattus norvegicus, RBL-2H3, 5 μM, read-out: Inhibition intensity of degranulation): -30 to 30%
- inhibition at 23 µM (RBL-2H3; Rattus norvegicus, RBL-2H3, 23 μM, read-out: Inhibition intensity of degranulation): 30 to 50%
- inhibition at 94 µM (RBL-2H3; Rattus norvegicus, RBL-2H3, 94 μM, read-out: Inhibition intensity of degranulation): ≥ 50%
- concentration at which inhibiting activity on degranulation was exerted (RBL-2H3): ≥ 23 µM

SMILES: OC[C@H]1O[C@H](O[C@H]2O[C@H](CO)[C@@H](O)[C@H](O)[C@H]2O)[C@H](O)[C@@H](O)[C@@H]1O [Trehalose, trehalose]
- Amount of melanin (%) ([1]; 20 mM): 82%
- Amount of melanin (%) ([1]; 40 mM): 75%
- Amount of melanin (%) ([1]; 80 mM): 66%
- inhibiting effect on melanin production in combinational use [1]: synergistically exert inhibiting effect on melanin production
